{"source": "paper PMC11506537", "about": "“An 11-mer Synthetic Peptide Suppressing Aggregation of Aβ25-35 and Resolving Its Aggregated Form Improves Test Performance in an Aβ25-35-Induced Alzheimer’s Mouse Model” (Biomolecules, 2024)", "molecules": {"B1": {"name": "lecanemab: latest Aβ antibody drug approved by the U.S. Food and Drug Administration (antibody, chains of the INN, looked up, V domains shown)", "VH": "EVQLVESGGGLVQPGGSLRLSCSASGFTFSSFGMHWVRQAPGKGLEWVAYISSGSSTIYYGDTVKGRFTISRDNAKNSLFLQMSSLRAEDTAVYYCAREGGYYYGRSYYTMDYWGQGTTVTVSS", "VL": "DVVMTQSPLSLPVTPGAPASISCRSSQSIVHSNGNTYLEWYLQKPGQSPKLLIYKVSNRFSGVPDRFSGSGSGTDFTLRISRVEAEDVGIYYCFQGSHVPPTFGPGTKLEIK"}}, "key": {"Aβ25-35": {"target": "T1, Aβ25-35 (Homo sapiens, UniProt P05067)", "T1 construct": "made in house; host or cells: chemical solid-phase (Fmoc) peptide synthesis; no expression host", "assay": "ThT assay, inhibition of Aβ25-35 aggregation", "type": "biochemical", "details": "for IC50: 100 µM Aβ25-35, PBS, 37 °C, 4 h, ThT fluorescence, n = 3", "procedure": "To perform the ThT assay to evaluate aggregation, Aβ25-35 (final concentration of 100 μM) was incubated with ThT solution (final concentration of 10 μM) in Phosphate-buffered saline (PBS), pH 7.4. The ThT signal was monitored by measuring the fluorescence emission at 480 nm for 10 s when excited at 444 nm using Cytation 5 (BioTek, Vermont, WI, USA) at 37 °C [41]. Aggregated Aβ25-35 (100 μM) peptides were prepared by incubating for 18 h in PBS.\nWe also evaluated inhibitory effects in a time-dependent manner. The fluorescence intensity of the reaction mixture of peptide and Aβ25-35 was traced for 120 min at 15 min intervals.\nTherefore, we evaluated the concentration-dependent aggregation inhibitory effect of YS-RD11 and YS-RE16 on Aβ25-35. Various concentrations of the peptides (YS-RD11; 1 to 100 µM, YS-RE16; 0.01 to 10 µM) were incubated independently with 100 µM Aβ25-35 (final con. 100 µM) in PBS at 37 °C. The fluorescence intensity of reaction mixtures was measured after 4 h."}, "Solubility": {"assay": "Solubility", "type": "physicochemical", "details": "stated without data"}, "A549 cells": {"tested_on": "A549 cells", "assay": "A549 cell viability, WST-8 assay", "details": "0.1 mg/mL peptide, 72 h, WST-8, n = 4; compared with FLAG peptide", "description": "The human lung cancer cell line, A549, was obtained from the Riken Cell Bank (Ibaraki, Japan). The cells were cultured as described previously [30, 43]. Briefly, A549 cells (4 × 10^3 cells/well) were seeded into 96-well plates and maintained in Dulbecco’s modified Eagle’s medium (DMEM) supplemented with 10% fetal bovine serum, 100 units/mL penicillin, and 100 μg/mL streptomycin at 37 °C in a humidified atmosphere with 5% CO2. […] After incubation for 72 h, the medium was exchanged for 110 μL of medium containing 10 μL WST-8 (water-soluble tetrazolium salt WST-8) reagent and 100 μL DMEM). The cells were further incubated for 1 h, the absorbance was determined at 450 nm with a reference wavelength of 620 nm using a SPECTRA max Plus384 microplate reader (Molecular Devices, LCC, San Jose, CA, USA)."}, "aggregated Aβ25-35": {"tested_on": "aggregated Aβ25-35", "assay": "SEM, resolution of aggregated Aβ25-35", "type": "biochemical", "procedure": "Aβ25-35 (100 μM) was incubated with YS-RD11 or YS-RE16 in PBS at 37 °C. The reaction mixture was centrifuged at 9000 rpm for 5 min. The supernatant was removed, 200 μL of MilliQ water was added and mixed, and the solution was centrifuged at 9000 rpm for 5 min to obtain a sample for SEM [42]. Aggregated Aβ25-35 (100 μM) peptides were prepared by incubating for 18 h in PBS.\nNext, the resolving effect of YS-RD11, YS-RE16, and YS-DE6 on aggregated Aβ25-35 was assessed by observing its shape using SEM."}, "u-proMMP-7": {"tested_on": "u-proMMP-7", "details": "cited from earlier work", "excerpt": "Chaperones are potential drug candidates for folding diseases, such as AD and Parkinson’s disease, which are caused by protein aggregation. In recent years, research has focused on low-molecular-weight chemical chaperones rather than on chaperone proteins. Biochemical methods are used to screen for chemical chaperones with the aim of developing therapeutic agents for lysosomal diseases, which are ..."}, "Aβ42": {"tested_on": "Aβ42", "parameters": "method as in 2 sources, ref 28 = [28]; PMID 30930080; doi:10.1016/j.peptides.2019.03.005; 28. Nakamura R. Konishi M. Taniguchi M. Hatakawa Y. Akizawa T. The discovery of shorter synthetic proteolytic peptides derived from Tob1 protein Peptides 2019 116 71 77 10.1016/j.peptides.2019.03.005 ||| ref 29, 30, 31 = [29]; PMID 31687556; doi:10.1016/j.heliyon.2019.e02454; 29. Hatakawa Y. Nakamura R. Konishi M. Sakane T. Saito M. Akizawa T. Catalytides derived from the Box A region in the ANA/BTG3 protein cleave amyloid-β fragment peptide Heliyon 2019 5 e02454 10.1016/j || [30]; PMID 33816760; doi:10.1002/trc2.12146; 30. Hatakawa Y. Nakamura R. Konishi M. Sakane T. Tanaka A. Matsuda A. Saito M. Akizawa T. Amyloid beta cleavage by ANA-TA9, a synthetic peptide from the ANA/BTG3 Box A region Alzheimers Dement. Transl || [31]; 31. Nakamura R. Konishi M. Hatakawa Y. Saito M. Akizawa T. The Novel Catalytic Peptide, A Synthetic Nona-Peptide (JAL-TA9) Derived from Tob1 Protein, Digests the Amyloid-β Peptide J. R. Sci. 2019 1 30", "details": "cited from earlier work"}, "[1]": {"parameters": "method as in PMID 30930080", "details": "structure–activity relationship of JAL-AK22; cited from earlier work"}, "[2]": {"details": "in vivo; cited from earlier work"}, "patients with AD": {"tested_on": "patients with AD", "details": "cited from earlier work", "excerpt": "Alzheimer’s disease (AD) is the most common age-related neurodegenerative disorder worldwide. Amyloid-β (Aβ) 42, which is produced by the cleavage of amyloid precursor protein (APP) by β- or γ-secretases, is considered to cause AD [1, 2, 3]. […] Thus, the current main strategy is to develop Aβ antibodies and vaccines aimed at inhibiting Aβ aggregation. […] Lecanemab, the latest Aβ ant ..."}}, "note": "Where a SMILES comes first, the peptide text is derived from it.", "data": [{"molecule": "CC(C)C[C@H](NC(=O)[C@H](Cc1c[nH]cn1)NC(=O)[C@@H](NC(=O)[C@H](CC(C)C)NC(=O)[C@H](Cc1ccc(O)cc1)NC(=O)[C@@H](NC(=O)[C@H](CC(C)C)NC(=O)[C@@H](NC(=O)[C@H](CCC(=O)O)NC(=O)[C@@H](N)CCCNC(=N)N)[C@@H](C)O)C(C)C)[C@@H](C)O)C(=O)N[C@@H](CC(=O)O)C(=O)O", "note": "[YS-RD11] (H-RETLVYLTHLD-OH)", "values": [{"measurement": "IC50", "setting": "Aβ25-35", "value": "~1500", "unit": "nM"}, {"measurement": "solubility", "setting": "Solubility", "value": "high solubility"}, {"measurement": "effect on growth of A549 cells", "setting": "A549 cells", "value": "did not show a significant inhibitory effect on the growth of A549 cells"}]}, {"molecule": "CC(C)C[C@H](NC(=O)[C@H](Cc1c[nH]cn1)NC(=O)[C@@H](NC(=O)[C@H](CC(C)C)NC(=O)[C@H](Cc1ccc(O)cc1)NC(=O)[C@@H](NC(=O)[C@H](CC(C)C)NC(=O)[C@@H](NC(=O)[C@H](CCC(=O)O)NC(=O)[C@@H](N)CCCNC(=N)N)[C@@H](C)O)C(C)C)[C@@H](C)O)C(=O)N[C@@H](CC(=O)O)C(=O)N[C@@H](Cc1ccc(O)cc1)C(=O)N[C@@H](CC(=O)O)C(=O)N[C@@H](CC(=O)O)C(=O)N[C@H](C(=O)N[C@@H](CCC(=O)O)C(=O)O)[C@@H](C)O", "note": "[YS-RE16] (H-RETLVYLTHLDYDDTE-OH)", "values": [{"measurement": "IC50", "setting": "Aβ25-35", "value": "~500", "unit": "nM"}, {"measurement": "effect on growth of A549 cells", "setting": "A549 cells", "value": "did not show a significant inhibitory effect on the growth of A549 cells"}]}, {"molecule": "DYDDTE [YS-DE6, peptide derived from YS-RE20, DYDDTE]", "values": [{"measurement": "amyloid fibrils observed by SEM, peptide 100 µM", "setting": "aggregated Aβ25-35; 100 µM peptide + 100 µM aggregated Aβ25-35 (18 h), PBS", "value": "a cluster of amyloid fibrils"}, {"measurement": "effect on Aβ25-35 aggregation, negative control", "setting": "aggregated Aβ25-35; YS-DE6 as negative control", "value": "did not show any effect against Aβ25-35 aggregation"}]}, {"molecule": "KWEGHWYPEKPYKGSGFRCIHI [JAL-AK22, reference compound]", "values": [{"measurement": "activation of proMMP-7", "setting": "u-proMMP-7", "value": "activates proMMP-7 by cleaving the pro-domain of MMP-7"}]}, {"molecule": "YKGSGFRMI [JAL-TA9]", "values": [{"measurement": "cleavage of Aβ42", "setting": "Aβ42", "value": "cleaved Aβ42 with serine protease-like activity"}, {"measurement": "cleavage of soluble (a-Aβ42) and solid insoluble (s-Aβ42) Aβ42", "setting": "Aβ42", "value": "cleaved both the authentic soluble form Aβ42 (a-Aβ42) and the solid insoluble form Aβ42 (s-Aβ42) in the central region"}, {"measurement": "auto-proteolytic activity", "setting": "[1]", "value": "strongest auto-proteolytic activity"}]}, {"molecule": "YKNMRETLVYLTHLD [YS-YD15]", "values": [{"measurement": "aggregation inhibitory activity against Aβ25-35 (conclusion in words)", "setting": "Aβ25-35; ThT, 100 μM peptides, PBS", "value": "weak inhibitory activity"}]}, {"molecule": "YKNMRETLVYLTHLDYDDTE [YS-YE20]", "values": [{"measurement": "activation of u-proMMP7", "setting": "u-proMMP-7; screening of 3000 types of peptides, no reference given", "value": "activates u-proMMP7 by acting as a chaperone rather than Catalytide"}]}, {"molecule": "oxytocin: the peptide oxytocin", "values": [{"measurement": "drug delivery to the brain via nasal application", "setting": "[2]", "value": "direct and efficient drug delivery"}]}, {"molecule": "B1", "values": [{"measurement": "side effects", "setting": "patients with AD", "value": "cerebral edema and cerebral microhemorrhage"}, {"measurement": "clinical effectiveness by AD stage", "setting": "patients with AD; patients with AD, no reference at this sentence", "value": "potentially effective in the early stages of AD but is less effective in the later stages"}]}]}
